What all share (test): relative viability (nuclei count vs DMSO), 5 days (fraction); higher = more cells survive
Compound in assay [1]: CC1=CC(=NN1)NC2=CC(=NC(=N2)/C=C/C3=CC=CC=C3)N4CCN(CC4)C + COc1cccc2cc(-c3nc([C@H]4CC[C@H](C(=O)O)CC4)n4ncnc(N)c34)[nH]c12 [OSI-027] (partner 0.5 µM)
In a few lines: (§1)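 After 5 days of treatment, lung cancer cells in 1536-well plates were fixed and stained in a single step (final 0.05% Triton X-100, 1% formaldehyde, 1 ug/ml Hoechst) and their nuclei counted on 4× images. Treatment had been applied by pin tool the day after seeding as one drug alone or as a fixed anchor-drug dose with five library-drug doses (not always all listed) in √10 steps. Relative viability is the nuclei count of treated wells divided by that of vehicle wells, and values are medians of duplicate plates.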

Compound in the assay “Bortezomib + Pemetrexed”: CC(C)C[C@H](NC(=O)[C@H](Cc1ccccc1)NC(=O)c1cnccn1)B(O)O [Bortezomib] + Nc1nc2[nH]cc(CCc3ccc(C(=O)N[C@@H](CCC(=O)O)C(=O)O)cc3)c2c(=O)[nH]1 [Pemetrexed] (partner 0.2 µM)
The method in brief:
as §1

Compound in the assay “Obatoclax + Crizotinib”: COC1=CC(c2cc3ccccc3[nH]2)=N/C1=C\c1[nH]c(C)cc1C [Obatoclax] + C[C@@H](Oc1cc(-c2cnn(C3CCNCC3)c2)cnc1N)c1c(Cl)ccc(F)c1Cl [Crizotinib] (partner 1 µM)
The method in brief: as §1

Compound in assay [2]: CC1=CC(=NN1)NC2=CC(=NC(=N2)/C=C/C3=CC=CC=C3)N4CCN(CC4)C + Cc1cc(Nc2cc(N3CCN(C)CC3)nc(Sc3ccc(NC(=O)C4CC4)cc3)n2)n[nH]1 [Tozasertib] (partner 0.1 µM)
The method in brief: as §1

In the case of SK-LU-1, the relative viability came out at 0.367 in assay [1] (first compound 0.08 µM); 0.299 in assay [1] (first compound 0.253 µM); 0.376 in assay [1] (first compound 0.8 µM); 0.119 in assay [1] (first compound 2.53 µM); 0.0636 in assay [1] (first compound 8 µM); 0.911 with Bortezomib + Pemetrexed (first compound 0.0002 µM). In addition, the relative viability with Bortezomib + Pemetrexed (first compound 0.000632 µM) is 0.984; with Bortezomib + Pemetrexed (first compound 0.002 µM), 0.704; in the assay with Bortezomib + Pemetrexed (first compound 0.006325 µM), 0.188; with Bortezomib + Pemetrexed (first compound 0.02 µM), 0.161; with Obatoclax + Crizotinib (first compound 0.01 µM), 1.03; with Obatoclax + Crizotinib (first compound 0.03162 µM), 0.836. Further, the relative viability with Obatoclax + Crizotinib (first compound 0.1 µM) turned out to be 0.761; with Obatoclax + Crizotinib (first compound 0.3162 µM), 0.403; with Obatoclax + Crizotinib (first compound 1 µM) it was 0.339; in assay [2] (first compound 0.08 µM), 0.347; in assay [2] (first compound 0.253 µM) it was 0.313; in assay [2] (first compound 0.8 µM), 0.304. Moreover, the relative viability in assay [2] (first compound 2.53 µM) came out at 0.156; in assay [2] (first compound 8 µM), 0.0914.

As for SK-MES-1, the relative viability in assay [1] (first compound 0.08 µM) came to 0.604; in assay [1] (first compound 0.253 µM), 0.617; in assay [1] (first compound 0.8 µM), 0.524; in assay [1] (first compound 2.53 µM) it was 0.139; in assay [1] (first compound 8 µM), 0.103; with Bortezomib + Pemetrexed (first compound 0.0002 µM), 0.956. The relative viability turned out to be 1.02 in the assay with Bortezomib + Pemetrexed (first compound 0.000632 µM); 0.915 in the assay with Bortezomib + Pemetrexed (first compound 0.002 µM); 0.211 in the assay with Bortezomib + Pemetrexed (first compound 0.006325 µM); 0.167 in the assay with Bortezomib + Pemetrexed (first compound 0.02 µM); 0.97 in the assay with Obatoclax + Crizotinib (first compound 0.01 µM); 0.953 in the assay with Obatoclax + Crizotinib (first compound 0.03162 µM). In addition, the relative viability came to 0.978 with Obatoclax + Crizotinib (first compound 0.1 µM); 0.959 with Obatoclax + Crizotinib (first compound 0.3162 µM); 0.81 with Obatoclax + Crizotinib (first compound 1 µM); 0.881 in assay [2] (first compound 0.08 µM); 0.912 in assay [2] (first compound 0.253 µM); 0.656 in assay [2] (first compound 0.8 µM). Further, the figures for the relative viability in assay [2] (first compound 2.53 µM) and in assay [2] (first compound 8 µM) were 0.177 and 0.13, respectively.

For SW 1573, the relative viability in assay [1] (first compound 0.08 µM) was 0.549; in assay [1] (first compound 0.253 µM) it was 0.511; in assay [1] (first compound 0.8 µM), 0.569; in assay [1] (first compound 2.53 µM), 0.0922; in assay [1] (first compound 8 µM) it was 0.0676; with Bortezomib + Pemetrexed (first compound 0.0002 µM), 0.844. The relative viability with Bortezomib + Pemetrexed (first compound 0.000632 µM) stood at 0.993; with Bortezomib + Pemetrexed (first compound 0.002 µM), 0.76; with Bortezomib + Pemetrexed (first compound 0.006325 µM) it was 0.0663; with Bortezomib + Pemetrexed (first compound 0.02 µM) it was 0.0512; with Obatoclax + Crizotinib (first compound 0.01 µM), 0.781; with Obatoclax + Crizotinib (first compound 0.03162 µM), 0.749. Moreover, the relative viability came to 0.843 in the assay with Obatoclax + Crizotinib (first compound 0.1 µM); 0.861 in the assay with Obatoclax + Crizotinib (first compound 0.3162 µM); 0.483 in the assay with Obatoclax + Crizotinib (first compound 1 µM); 0.213 in assay [2] (first compound 0.08 µM); 0.162 in assay [2] (first compound 0.253 µM); 0.162 in assay [2] (first compound 0.8 µM). In addition, the relative viability came out at 0.133 in assay [2] (first compound 2.53 µM) and 0.0849 in assay [2] (first compound 8 µM).

For the cell line UMC-11, the relative viability in assay [1] (first compound 0.08 µM) came to 0.494; in assay [1] (first compound 0.253 µM), 0.458; in assay [1] (first compound 0.8 µM), 0.339; in assay [1] (first compound 2.53 µM), 0.141; in assay [1] (first compound 8 µM), 0.133; with Bortezomib + Pemetrexed (first compound 0.0002 µM) it was 0.694. In addition, the relative viability with Bortezomib + Pemetrexed (first compound 0.000632 µM) came out at 0.875; with Bortezomib + Pemetrexed (first compound 0.002 µM), 0.745; with Bortezomib + Pemetrexed (first compound 0.006325 µM), 0.39; with Bortezomib + Pemetrexed (first compound 0.02 µM), 0.17; with Obatoclax + Crizotinib (first compound 0.01 µM), 0.671; in the assay with Obatoclax + Crizotinib (first compound 0.03162 µM), 0.615. In addition, the relative viability with Obatoclax + Crizotinib (first compound 0.1 µM) is 0.53; with Obatoclax + Crizotinib (first compound 0.3162 µM) it was 0.682; with Obatoclax + Crizotinib (first compound 1 µM) it was 0.346; in assay [2] (first compound 0.08 µM), 0.191; in assay [2] (first compound 0.253 µM) it was 0.212; in assay [2] (first compound 0.8 µM), 0.206. Further, the values for the relative viability in assay [2] (first compound 2.53 µM) and in assay [2] (first compound 8 µM) were 0.183 and 0.162, respectively.

The values are drawn from the supplement of paper PMC10307832.
